Data as given in PubChem BioAssay AID1963450 (Molecular Pharmacology Branch, DTP, NCI, 2024).

Test system: 556581-035-R-J1-PDC complex spheroid growth
Test: Anticancer human tumor 556581-035-R-J1-PDC patient-derived ovarian carcinoma cell line growth inhibition [Asc]
Conditions: for IC50: curve of first compound; for viability, T/C: stronger effect = lower value
How it was run: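 Complex solid-tumor spheroids incorporating human endothelial and mesenchymal stem cells received single agents or combinations over half-log dilution ranges anchored to clinical Cmax.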

[1] = second compound 0.01 µM, first compound 0.0316 µM
[2] = second compound 0.01 µM, first compound 0.1 µM
[3] = second compound 0.01 µM, first compound 0.316 µM
[4] = second compound 0.01 µM, first compound 1 µM
[5] = second compound 0.0316 µM, first compound 0.0316 µM
[6] = second compound 0.0316 µM, first compound 0.1 µM
[7] = second compound 0.0316 µM, first compound 0.316 µM
[8] = second compound 0.0316 µM, first compound 1 µM
[9] = second compound 0.1 µM, first compound 0.0316 µM
[10] = second compound 0.1 µM, first compound 0.1 µM
[11] = second compound 0.1 µM, first compound 0.316 µM
[12] = second compound 0.1 µM, first compound 1 µM
[13] = second compound 0.316 µM, first compound 0.0316 µM
[14] = second compound 0.316 µM, first compound 0.1 µM
[15] = second compound 0.316 µM, first compound 0.316 µM
[16] = second compound 0.316 µM, first compound 1 µM
[17] = second compound 1 µM, first compound 0.0316 µM
[18] = second compound 1 µM, first compound 0.1 µM
[19] = second compound 1 µM, first compound 0.316 µM
[20] = second compound 1 µM, first compound 1 µM
[21] = second compound 0.01 µM, first compound 0.00316 µM
[22] = second compound 0.01 µM, first compound 0.01 µM
[23] = second compound 0.0316 µM, first compound 0.00316 µM
[24] = second compound 0.0316 µM, first compound 0.01 µM
[25] = second compound 0.1 µM, first compound 0.00316 µM
[26] = second compound 0.1 µM, first compound 0.01 µM
[27] = second compound 0.316 µM, first compound 0.00316 µM
[28] = second compound 0.316 µM, first compound 0.01 µM
[29] = second compound 1 µM, first compound 0.00316 µM
[30] = second compound 1 µM, first compound 0.01 µM
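Also: spheroids exposed to agents for 7 days before viability read.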

C=CC(=O)N1CCN(c2nc(=O)n(-c3c(C)ccnc3C(C)C)c3nc(-c4c(O)cccc4F)c(F)cc23)C(C)C1 (stereo not given) + CNC(C)C(=O)NC1CN(S(=O)(=O)c2cccc(S(=O)(=O)N3CCC4CCC(C(=O)NC(c5ccccc5)c5ccccc5)N4C(=O)C(NC(=O)C(C)NC)C3)c2)CCC2CCC(C(=O)NC(c3ccccc3)c3ccccc3)N2C1=O showed an IC50 (second compound 0.01 µM) of over 10000 nM, an IC50 (second compound 0.0316 µM) of over 10000 nM and an IC50 (second compound 0.1 µM) of over 10000 nM. The IC50 (second compound 0.316 µM) was over 10000 nM, the IC50 (second compound 1 µM) was over 10000 nM and the viability, T/C [1] was 88.6%. It also gave a viability, T/C [2] of 90%, a viability, T/C [3] of 82.4% and a viability, T/C [4] of 101%. The viability, T/C (second compound 0.01 µM, first compound 3.16 µM) was 103%, the viability, T/C (second compound 0.01 µM, first compound 10 µM) was 86.5% and the viability, T/C [5] was 95%. It also gave a viability, T/C [6] of 98%, a viability, T/C [7] of 83% and a viability, T/C [8] of 91.5%. It also gave a viability, T/C (second compound 0.0316 µM, first compound 3.16 µM) of 94.3%, a viability, T/C (second compound 0.0316 µM, first compound 10 µM) of 78.8% and a viability, T/C [9] of 98.3%. The viability, T/C [10] was 81.5%, the viability, T/C [11] was 89.1% and the viability, T/C [12] was 95.3%. For the same compound, the viability, T/C (second compound 0.1 µM, first compound 3.16 µM) was 91.3%, the viability, T/C (second compound 0.1 µM, first compound 10 µM) was 100% and the viability, T/C [13] was 92.3%. It also gave a viability, T/C [14] of 85.2%, a viability, T/C [15] of 94.2% and a viability, T/C [16] of 79.8%. It also gave a viability, T/C (second compound 0.316 µM, first compound 3.16 µM) of 78.9%, a viability, T/C (second compound 0.316 µM, first compound 10 µM) of 81.4% and a viability, T/C [17] of 79.5%. It also gave a viability, T/C [18] of 71.5%, a viability, T/C [19] of 86.3% and a viability, T/C [20] of 74.8%. For the same compound, the viability, T/C (second compound 1 µM, first compound 3.16 µM) was 87.2% and the viability, T/C (second compound 1 µM, first compound 10 µM) was 66.5%.
COc1c(OCCCN2CCOCC2)ccc2c3n(c(=NC(=O)c4cnc(N)nc4)nc12)CCN3 + CNC(C)C(=O)NC1CN(S(=O)(=O)c2cccc(S(=O)(=O)N3CCC4CCC(C(=O)NC(c5ccccc5)c5ccccc5)N4C(=O)C(NC(=O)C(C)NC)C3)c2)CCC2CCC(C(=O)NC(c3ccccc3)c3ccccc3)N2C1=O was tested, and the IC50 (second compound 0.01 µM) was 17.2 nM, the IC50 (second compound 0.0316 µM) was 22 nM and the IC50 (second compound 0.1 µM) was 9.5 nM. For the same compound, the IC50 (second compound 0.316 µM) was 14.5 nM, the IC50 (second compound 1 µM) was 9.84 nM and the viability, T/C [21] was 70.3%. It also gave a viability, T/C [22] of 58.8%, a viability, T/C [1] of 37.7% and a viability, T/C [2] of 35.7%. For the same compound, the viability, T/C [3] was 19.1%, the viability, T/C [4] was 12.2% and the viability, T/C [23] was 64.2%. The viability, T/C [24] was 58.2%, the viability, T/C [5] was 45.4% and the viability, T/C [6] was 35.5%. It also gave a viability, T/C [7] of 22.4%, a viability, T/C [8] of 9.75% and a viability, T/C [25] of 58.6%. The viability, T/C [26] was 49.9%, the viability, T/C [9] was 38.5% and the viability, T/C [10] was 31.6%. For the same compound, the viability, T/C [11] was 19.3%, the viability, T/C [12] was 10.5% and the viability, T/C [27] was 64.6%. The viability, T/C [28] was 53.1%, the viability, T/C [13] was 42.4% and the viability, T/C [14] was 27.5%. For the same compound, the viability, T/C [15] was 16.4%, the viability, T/C [16] was 9.55% and the viability, T/C [29] was 60.7%. The viability, T/C [30] was 47.1%, the viability, T/C [17] was 40.9% and the viability, T/C [18] was 27.3%. It also gave a viability, T/C [19] of 14.9% and a viability, T/C [20] of 7.78%.
Compound NC(=O)C(=Cn1cnc(-c2cc(C(F)(F)F)cc(C(F)(F)F)c2)n1)c1cncnc1 + CNC(C)C(=O)NC1CN(S(=O)(=O)c2cccc(S(=O)(=O)N3CCC4CCC(C(=O)NC(c5ccccc5)c5ccccc5)N4C(=O)C(NC(=O)C(C)NC)C3)c2)CCC2CCC(C(=O)NC(c3ccccc3)c3ccccc3)N2C1=O has an IC50 (second compound 0.01 µM) of over 300 nM, an IC50 (second compound 0.0316 µM) of over 300 nM and an IC50 (second compound 0.1 µM) of over 300 nM. The IC50 (second compound 0.316 µM) was over 300 nM, the IC50 (second compound 1 µM) was over 300 nM and the viability, T/C (second compound 0.01 µM, first compound 0.000949 µM) was 93%. For the same compound, the viability, T/C (second compound 0.01 µM, first compound 0.003 µM) was 85.2%, the viability, T/C (second compound 0.01 µM, first compound 0.00949 µM) was 63.7% and the viability, T/C (second compound 0.01 µM, first compound 0.03 µM) was 66.8%. It also gave a viability, T/C (second compound 0.01 µM, first compound 0.0949 µM) of 90.1%, a viability, T/C (second compound 0.01 µM, first compound 0.3 µM) of 72.6% and a viability, T/C (second compound 0.0316 µM, first compound 0.000949 µM) of 105%. For the same compound, the viability, T/C (second compound 0.0316 µM, first compound 0.003 µM) was 86%, the viability, T/C (second compound 0.0316 µM, first compound 0.00949 µM) was 87.9% and the viability, T/C (second compound 0.0316 µM, first compound 0.03 µM) was 79.2%. For the same compound, the viability, T/C (second compound 0.0316 µM, first compound 0.0949 µM) was 75.7%, the viability, T/C (second compound 0.0316 µM, first compound 0.3 µM) was 82% and the viability, T/C (second compound 0.1 µM, first compound 0.000949 µM) was 70.7%. The viability, T/C (second compound 0.1 µM, first compound 0.003 µM) was 79.5%, the viability, T/C (second compound 0.1 µM, first compound 0.00949 µM) was 76.1% and the viability, T/C (second compound 0.1 µM, first compound 0.03 µM) was 50%. The viability, T/C (second compound 0.1 µM, first compound 0.0949 µM) was 64.1%, the viability, T/C (second compound 0.1 µM, first compound 0.3 µM) was 63.3% and the viability, T/C (second compound 0.316 µM, first compound 0.000949 µM) was 76.5%. The viability, T/C (second compound 0.316 µM, first compound 0.003 µM) was 75.8%, the viability, T/C (second compound 0.316 µM, first compound 0.00949 µM) was 71.7% and the viability, T/C (second compound 0.316 µM, first compound 0.03 µM) was 65.8%. The viability, T/C (second compound 0.316 µM, first compound 0.0949 µM) was 65.3%, the viability, T/C (second compound 0.316 µM, first compound 0.3 µM) was 62.2% and the viability, T/C (second compound 1 µM, first compound 0.000949 µM) was 76.9%. The viability, T/C (second compound 1 µM, first compound 0.003 µM) was 73%, the viability, T/C (second compound 1 µM, first compound 0.00949 µM) was 66.7% and the viability, T/C (second compound 1 µM, first compound 0.03 µM) was 63%. For the same compound, the viability, T/C (second compound 1 µM, first compound 0.0949 µM) was 59.7% and the viability, T/C (second compound 1 µM, first compound 0.3 µM) was 53.3%.
Work on NC1CCC(NC2CC2c2ccccc2)CC1 (stereo not given) + CNC(C)C(=O)NC1CN(S(=O)(=O)c2cccc(S(=O)(=O)N3CCC4CCC(C(=O)NC(c5ccccc5)c5ccccc5)N4C(=O)C(NC(=O)C(C)NC)C3)c2)CCC2CCC(C(=O)NC(c3ccccc3)c3ccccc3)N2C1=O yielded an IC50 (second compound 0.01 µM) of over 100 nM, an IC50 (second compound 0.0316 µM) of over 100 nM and an IC50 (second compound 0.1 µM) of over 100 nM. For the same compound, the IC50 (second compound 0.316 µM) was over 100 nM, the IC50 (second compound 1 µM) was over 100 nM and the viability, T/C (second compound 0.01 µM, first compound 0.000316 µM) was 90.1%. The viability, T/C (second compound 0.01 µM, first compound 0.001 µM) was 93.5%, the viability, T/C [21] was 86.5% and the viability, T/C [22] was 92.9%. For the same compound, the viability, T/C [1] was 95.8%, the viability, T/C [2] was 86.8% and the viability, T/C (second compound 0.0316 µM, first compound 0.000316 µM) was 86.3%. For the same compound, the viability, T/C (second compound 0.0316 µM, first compound 0.001 µM) was 83.8%, the viability, T/C [23] was 87.4% and the viability, T/C [24] was 72%. It also gave a viability, T/C [5] of 80.2%, a viability, T/C [6] of 86.1% and a viability, T/C (second compound 0.1 µM, first compound 0.000316 µM) of 86.1%. The viability, T/C (second compound 0.1 µM, first compound 0.001 µM) was 87.5%, the viability, T/C [25] was 75.1% and the viability, T/C [26] was 64.5%. It also gave a viability, T/C [9] of 80.5%, a viability, T/C [10] of 86% and a viability, T/C (second compound 0.316 µM, first compound 0.000316 µM) of 75.2%. The viability, T/C (second compound 0.316 µM, first compound 0.001 µM) was 73.1%, the viability, T/C [27] was 73% and the viability, T/C [28] was 71.9%. For the same compound, the viability, T/C [13] was 77.3%, the viability, T/C [14] was 64.2% and the viability, T/C (second compound 1 µM, first compound 0.000316 µM) was 66.8%. It also gave a viability, T/C (second compound 1 µM, first compound 0.001 µM) of 73%, a viability, T/C [29] of 73.1% and a viability, T/C [30] of 63.4%. It also gave a viability, T/C [17] of 67.6% and a viability, T/C [18] of 71.4%.
